Values joined by “and” are separate entries in the source; they are usually repeats but may differ in a detail not shown here. Equal values may be shown once. Blank lines part the entries; values can stand above or below the molecule they belong to.
Test: solvent given as SMILES

emission maximum (in C1CCOC1): 480 nm
Structure (SMILES): C1=C(c2ccccc2)C=C(c2ccccc2)/C1=C/c1ccc2ccc3cccc4ccc1c2c34

Structure (SMILES): CC(=O)c1c2c(cc3cc(N(C)C)ccc13)CCC2
emission maximum (in C1CCCCC1): 445 nm | emission maximum (in C1CCOC1): 505 nm | emission maximum (in C1COCCO1): 495 nm | emission maximum (in CC#N): 545 nm | emission maximum (in CCO): 605 nm | emission maximum (in CS(C)=O): 558 nm | emission maximum (in Cc1ccccc1): 481 nm | emission maximum (in ClC(Cl)Cl): 511 nm | emission maximum (in ClCCl): 509 nm

emission maximum (in C1CCOC1): 569 nm | emission maximum (in CC#N): 632 nm | emission maximum (in CCCCCC): 495 nm
Structure (SMILES): COC(C)CC1=N/C(=C\c2cccc(N(C)C)c2)C(=O)N1C (centres undefined)

emission maximum (in ClC(Cl)Cl): 518.49 nm
Structure (SMILES): COc1ccc(O[B-]2(Oc3ccc(OC)cc3)n3c(C)cc(C)c3C(c3ccc(I)cc3)=C3C(C)=CC(C)=[N+]32)cc1

emission maximum (in CC1CCCO1): 645 nm
Structure (SMILES): CC1=CC(/C=C/c2ccc(C)cc2)=[N+]2C1=C(c1ccccc1)c1c(C)cc(/C=C/c3ccc(C)cc3)n1[B-]2(F)F

emission maximum (in ClC(Cl)Cl): 577 nm
Structure (SMILES): Cc1ccc(-c2oc3cccc4c5c(-c6ccc(C)cc6)/c(=N/S(=O)(=O)C(F)(F)F)oc6cccc(c2c34)c65)cc1

emission maximum (in C1CCCCC1): 427 nm | emission maximum (in CC#N): 553 nm | emission maximum (in CC(C)O): 534 nm | emission maximum (in CO): 565 nm | emission maximum (in CS(C)=O): 564 nm | emission maximum (in ClC(Cl)Cl): 494 nm | emission maximum (in c1ccccc1): 475 nm
Structure (SMILES): CN(C)c1ccc2nc(-c3ccc(C(=O)Nc4ccccc4)cc3)sc2c1

Structure (SMILES): c1ccc(C2(c3ccccc3)c3ccccc3N(c3ccc(-c4nc([C@]56CC7CC(C[C@@H](C7)C5)C6)nc([C@]56C[C@H]7C[C@@H](C[C@H](C7)C5)C6)n4)cc3)c3ccccc32)cc1
emission maximum (in CC(C)(C)c1ccc(-n2c3ccc([Si](c4ccccc4)(c4ccccc4)c4ccccc4)cc3c3cc([Si](c4ccccc4)(c4ccccc4)c4ccccc4)ccc32)cc1): 445.29 nm | emission maximum (in Cc1ccccc1): 451.05 nm

emission maximum (in CC#N): 470 nm
Structure (SMILES): CC(C)Oc1ccc(C#Cc2ccc3ccc(=O)oc3c2)cc1

emission maximum (in ClC(Cl)Cl): 463 nm
Structure (SMILES): Clc1ccc(-c2nc(-c3ccccc3)sc2N(c2ccccc2)c2ccccc2)cc1

emission maximum (in ClCCl): 395 nm
Structure (SMILES): c1ccc([Si]2(c3ccccc3)c3ccccc3-c3cc4c(cc32)-c2ccccc2[Si]4(c2ccccc2)c2ccccc2)cc1

emission maximum (in C1CCOC1): 396 nm
Structure (SMILES): COc1ccc(C(=Cc2ccc(C=O)cc2)c2ccc(OC)cc2)cc1

emission maximum (in CCO): 665 nm | emission maximum (in CO): 659 nm | emission maximum (in CS(C)=O): 665 nm | emission maximum (in O): 658 nm
Structure (SMILES): CN1/C(=C/C=C(/C=C/C2=[N+](C)c3ccccc3C2(C)C)c2ccc(C(F)(F)F)cc2)C(C)(C)c2ccccc21

emission maximum (in CC#N): 469 nm
Structure (SMILES): O=c1oc2cc3c(cc2cc1/C=C/c1ccccc1)OCO3

emission maximum (in CCO): 537 nm
Structure (SMILES): Nc1cc2nc3cc(F)c(F)cc3nc2cc1N

Structure (SMILES): c1ccc2c(c1)Sc1ccccc1N2c1ccc2c(ccc3nc4ccc5cc(N6c7ccccc7Sc7ccccc76)ccc5c4nc32)c1
emission maximum (in C1CCCCC1): 543 nm | emission maximum (in Cc1ccccc1): 657 nm

emission maximum (in CC#N): 522 nm
Structure (SMILES): N#C/C(=C\c1ccc(C#N)cc1)c1nc(-c2ccc(Cl)cc2)c(-c2ccccc2)s1

emission maximum (in ClC(Cl)Cl): 588 nm
Structure (SMILES): N#Cc1nc(N(Cc2ccccc2)Cc2ccccc2)c(C#N)nc1N(Cc1ccccc1)Cc1ccccc1

emission maximum (in ClC(Cl)Cl): 533 nm
Structure (SMILES): CCCCN1C(=O)c2ccc3c4ccc5c6c(ccc(c7ccc(c2c37)C1=O)c64)C(=O)N(CCCC)C5=O

Structure (SMILES): COc1ccc(N(c2ccc(C=C(c3ccccc3)c3ccccc3)cc2)c2ccc(C=C(c3ccccc3)c3ccccc3)cc2)cc1
emission maximum (in Cc1ccccc1): 477 nm

emission maximum (in ClCCl): 358 nm
Structure (SMILES): C[Si](C)(C)c1ccc(-c2nc3ccccc3n2-c2ccccc2)cc1

emission maximum (in C1CCOC1): 371 nm
Structure (SMILES): CCCCCCCCCn1c(-c2cc(-c3nc4ccc(C)cc4n3CCCCCCCCC)cc(-c3nc4ccc(C)cc4n3CCCCCCCCC)c2)nc2ccc(C)cc21

Structure (SMILES): CCCCC(CC)Cn1c2cc(C#N)ccc2c2cc(-c3ccc(N(c4ccccc4)c4ccccc4)cc3)c(C#N)cc21 (centres undefined)
emission maximum (in C1CCCCC1): 444 nm | emission maximum (in C1CCOC1): 507 nm | emission maximum (in CC#N): 548 nm | emission maximum (in CCCCOCCCC): 464 nm | emission maximum (in CCN(CC)CC): 461.69 nm | emission maximum (in CCOC(C)=O): 463 nm | emission maximum (in CCOCC): 501 nm | emission maximum (in CN(C)C=O): 543 nm | emission maximum (in Cc1ccccc1): 474 nm | emission maximum (in ClC=C(Cl)Cl): 477 nm | emission maximum (in ClCCl): 517 nm

emission maximum (in CO): 535 nm | emission maximum (in CS(C)=O): 510 nm | emission maximum (in ClC(Cl)Cl): 490 nm | emission maximum (in c1ccccc1): 480 nm
Structure (SMILES): CCC1=C(C)C(=O)n2c1cc1c(C)c(CCC(=O)O)c(C)n1c2=O

emission maximum (in C1CCCCC1): 389 nm | emission maximum (in CC#N): 466 nm | emission maximum (in CC(C)O): 477.17 nm | emission maximum (in CO): 472 nm | emission maximum (in CS(C)=O): 465.05 nm | emission maximum (in ClC(Cl)Cl): 437 nm | emission maximum (in c1ccccc1): 425.86 nm
Structure (SMILES): CN(C)c1ccc2nc(-c3ccccc3)sc2c1Cl

emission maximum (in ClCCl): 576 nm
Structure (SMILES): COc1ccc(C#Cc2c3ccccc3c(C#Cc3ccc(OC)cc3)c3cc4ccccc4cc23)cc1

emission maximum (in C1CCOC1): 461 nm
Structure (SMILES): C(=C(c1ccccc1)c1ccccc1)c1ccc(C=C(c2ccccc2)c2ccccc2)cc1

Structure (SMILES): CCC1(CC)c2cc(B(c3c(C)cc(C)cc3C)c3c(C)cc(C)cc3C)ccc2-c2ccc(N(c3ccccc3)c3ccc4c(c3)C(CC)(CC)c3cc(B(c5c(C)cc(C)cc5C)c5c(C)cc(C)cc5C)ccc3-4)cc21
emission maximum (in C1CCOC1): 490 nm | emission maximum (in CC#N): 538 nm | emission maximum (in CC(C)=O): 515 nm | emission maximum (in CCCCCC): 445 nm | emission maximum (in CN(C)C=O): 533 nm | emission maximum (in Cc1ccccc1): 461 nm | emission maximum (in ClC(Cl)Cl): 477 nm

emission maximum (in CC#N): 624 nm | emission maximum (in CCCCCC): 587 nm | emission maximum (in CO): 633 nm
Structure (SMILES): COc1ccc(N2c3cc(OC)ccc3N=c3cc4c(cc32)=Nc2cc(C(C)(C)C)cc(C(C)(C)C)c2O4)cc1

emission maximum (in C1CCOC1): 450.74 nm
Structure (SMILES): CC(C)(C)c1ccc(-c2nc(-c3ccc(C(C)(C)C)cc3)nc(-c3ccc(-n4c5ccccc5c5c6oc7ccccc7c6ccc54)c(C#N)c3)n2)cc1

emission maximum (in ClCCl): 471 nm
Structure (SMILES): CN(/N=C1\N=C(N)C2(CCCC2)c2ccccc21)c1ccccc1

Structure (SMILES): CCN(CC)c1ccc2nc3c4ccccc4c(=O)cc-3oc2c1
emission maximum (in C1COCCO1): 582 nm | emission maximum (in CC#N): 620 nm | emission maximum (in CC(C)=O): 614 nm | emission maximum (in CCCCCC): 532 nm | emission maximum (in CCO): 638 nm | emission maximum (in CCOC(C)=O): 594 nm | emission maximum (in CO): 643 nm | emission maximum (in CS(C)=O): 635 nm | emission maximum (in Cc1ccccc1): 572 nm | emission maximum (in ClCCl): 608 nm

Structure (SMILES): CN(C)c1ccc(/C=C/c2cc(/C=C/c3ccc(N(C)C)cc3)nc(N)n2)cc1
emission maximum (in Cc1ccccc1): 466 nm | emission maximum (in ClC(Cl)Cl): 511 nm

emission maximum (in C1CCOC1): 465 nm
Structure (SMILES): N#Cc1c(N2CCCCC2)cc(-c2ccc3ccccc3c2)c2c1Cc1ccccc1-2

emission maximum (in CC#N): 475 nm | emission maximum (in CCCCCC): 453 nm | emission maximum (in CO): 476 nm | emission maximum (in c1ccccc1): 467 nm and 460 nm
Structure (SMILES): O=c1oc2ccc3ccccc3c2nc1-c1ccccc1

Structure (SMILES): CCCCOC(=O)c1cc(Oc2ccc(OC)cc2)c2c3c(Cl)cc4c5c(cc(Cl)c(c6c(Oc7ccc(OC)cc7)cc(C(=O)OCCCC)c1c26)c53)C(=O)N(c1c(C(C)C)cccc1C(C)C)C4=O
emission maximum (in Cc1ccccc1): 599 nm

emission maximum (in O): 398 nm
Structure (SMILES): Nc1ccc2ccc(O)cc2c1

emission maximum (in CCO): 499 nm | emission maximum (in ClCCl): 503 nm | emission maximum (in O): 609 nm
Structure (SMILES): N#CC(C#N)=Cc1ccc(-c2ccc(-c3nc4ccccc4s3)c(O)c2)s1

emission maximum (in C1COCCO1): 373 nm | emission maximum (in CC#N): 378 nm | emission maximum (in CO): 389 nm | emission maximum (in ClCCl): 375 nm
Structure (SMILES): CN(C)c1nc(N)nc2c1nc(C#N)n2Cc1ccccc1

Structure (SMILES): CCN(CC)c1ccc([N+]2=Cc3ccc4c5c(ccc4c3O[B-]2(c2c(F)c(F)c(F)c(F)c2F)c2c(F)c(F)c(F)c(F)c2F)C=[N+](c2ccc(N(CC)CC)cc2)[B-](c2c(F)c(F)c(F)c(F)c2F)(c2c(F)c(F)c(F)c(F)c2F)O5)cc1
emission maximum (in C1CCOC1): 714 nm | emission maximum (in Cc1ccccc1): 644 nm | emission maximum (in ClCCl): 683 nm

Structure (SMILES): COc1ccccc1C1=NC2c3cccc4cccc(c34)C2N1c1ccccc1 (centres undefined)
emission maximum (in Cc1ccccc1): 379 nm

emission maximum (in C1COCCO1): 589 nm
Structure (SMILES): COC(=O)c1ccc(/C=C2\C=C(c3ccc(C#N)cc3)N(CC(C)C)C2=O)cc1

Structure (SMILES): c1ccc(-c2nc(-c3ccc(-c4nc(-c5ccccc5)c(-c5ccccc5)[nH]4)s3)[nH]c2-c2ccccc2)cc1
emission maximum (in C1CCOC1): 457 nm | emission maximum (in CC#N): 458 nm | emission maximum (in CC(=O)O): 503 nm and 502.99 nm | emission maximum (in CC(C)=O): 460 nm and 458 nm | emission maximum (in CCOC(C)=O): 457 nm | emission maximum (in CCOCC): 454 nm and 454.01 nm | emission maximum (in CO): 457 nm | emission maximum (in ClC(Cl)Cl): 485 nm and 484.99 nm

Structure (SMILES): CCCC1=Cc2nc1ccc1[nH]c(cc1CCC)c1nc(c(OC(=O)CCCC(=O)OC(C)(C)C)cc3[nH]c2cc3CCC)C(CCC)=C1
emission maximum (in Cc1ccccc1): 651 nm

emission maximum (in ClCCl): 431 nm
Structure (SMILES): c1ccc(-c2c3ccccc3c(-c3ccc4ccccc4c3)c3ccccc23)nc1

Structure (SMILES): CN(C)c1ccc(/C=C/c2nc3ccc(N(C)C)cc3oc2=O)cc1
emission maximum (in C1CCCCC1): 521 nm | emission maximum (in C1COCCO1): 581 nm | emission maximum (in CC#N): 650 nm | emission maximum (in CC(C)=O): 626 nm | emission maximum (in CC(O)CO): 649.5 nm | emission maximum (in CCCCCCC): 519 nm | emission maximum (in CCO): 666 nm | emission maximum (in CCOC(C)=O): 587 nm | emission maximum (in CN(C)C=O): 650 nm | emission maximum (in CS(C)=O): 666 nm | emission maximum (in Cc1ccccc1): 567 nm | emission maximum (in ClC(Cl)Cl): 627 nm | emission maximum (in ClCCl): 619 nm | emission maximum (in OCC(O)CO): 659 nm

emission maximum (in CCO): 447 nm
Structure (SMILES): CC(C)(C)OC(=O)NC(Cc1ccccc1)C(=O)OCc1ccc2c3cccc4cccc(c5cccc1c52)c43 (centres undefined)

emission maximum (in CO): 556 nm
Structure (SMILES): CCOC(=O)CCCCCn1c2ccc(Cl)cc2c(=O)c2cc3c(cc21)c(=O)c1cc(Cl)ccc1n3CCCCCC(=O)OCC

emission maximum (in ClC(Cl)Cl): 644 nm
Structure (SMILES): CCCCCCCCN1C(=O)c2ccc3c4c(-c5ccc6c7ccccc7n(-c7ccccc7)c6c5)cc5c6c(cc(-c7ccc8c9ccccc9n(-c9ccccc9)c8c7)c(c7ccc(c2c37)C1=O)c64)C(=O)N(CCCCCCCC)C5=O

emission maximum (in ClCCl): 368 nm
Structure (SMILES): CC(C)(C)c1ccc2c(c1)c1cc(C(C)(C)C)ccc1n2-c1cccs1

emission maximum (in CS(C)=O): 508 nm
Structure (SMILES): O=[N+]([O-])c1ccc(N/C=C/C=[NH+]c2ccc([N+](=O)[O-])cc2)cc1
